The target of series [1] is T1, Muscarinic acetylcholine receptor M2 (Rattus norvegicus, UniProt P10980).
T1 sequence (P10980 whole entry): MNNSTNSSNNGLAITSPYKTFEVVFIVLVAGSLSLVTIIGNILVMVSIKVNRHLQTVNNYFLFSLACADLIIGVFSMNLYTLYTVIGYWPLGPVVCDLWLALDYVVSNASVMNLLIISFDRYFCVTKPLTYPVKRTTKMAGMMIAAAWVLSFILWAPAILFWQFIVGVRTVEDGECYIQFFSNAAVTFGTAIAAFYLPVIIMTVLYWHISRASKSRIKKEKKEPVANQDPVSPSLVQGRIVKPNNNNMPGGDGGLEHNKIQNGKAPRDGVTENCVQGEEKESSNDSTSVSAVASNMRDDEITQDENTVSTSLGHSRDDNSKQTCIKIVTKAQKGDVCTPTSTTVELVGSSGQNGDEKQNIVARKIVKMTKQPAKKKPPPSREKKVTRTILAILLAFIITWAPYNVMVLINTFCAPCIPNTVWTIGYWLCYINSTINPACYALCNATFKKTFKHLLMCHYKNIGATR
Put plainly: Agonist activity at rat muscarinic M2 receptor expressed in CHO cells. Type of series: functional, cell-based.

The target in series [2] is Muscarinic acetylcholine receptor M3 (Rattus norvegicus, UniProt P08483). Put plainly: Agonist activity at rat muscarinic M3 receptor expressed in CHO cells. It counts as functional, cell-based.
The target of series [3] is T2, Muscarinic acetylcholine receptor M4 (Rattus norvegicus, UniProt P08485).
T2 sequence (P08485 whole entry): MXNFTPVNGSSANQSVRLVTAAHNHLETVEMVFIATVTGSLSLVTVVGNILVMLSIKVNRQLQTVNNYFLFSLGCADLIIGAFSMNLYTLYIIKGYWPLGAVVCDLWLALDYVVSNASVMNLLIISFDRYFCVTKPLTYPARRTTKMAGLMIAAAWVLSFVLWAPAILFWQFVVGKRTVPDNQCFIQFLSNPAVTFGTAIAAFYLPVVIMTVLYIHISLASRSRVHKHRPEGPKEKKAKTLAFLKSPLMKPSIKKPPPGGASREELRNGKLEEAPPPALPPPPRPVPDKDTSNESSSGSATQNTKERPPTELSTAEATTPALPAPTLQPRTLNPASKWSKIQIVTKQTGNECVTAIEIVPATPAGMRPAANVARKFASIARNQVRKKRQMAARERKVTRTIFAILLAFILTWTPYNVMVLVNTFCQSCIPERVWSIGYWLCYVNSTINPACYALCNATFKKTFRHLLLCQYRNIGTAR
Put plainly: Agonist activity at rat muscarinic M4 receptor expressed in CHO cells. It counts as functional, cell-based.

Series [4] concerns the target T3, Muscarinic acetylcholine receptor M5 (Rattus norvegicus, UniProt P08911).
T3 sequence (P08911 whole entry): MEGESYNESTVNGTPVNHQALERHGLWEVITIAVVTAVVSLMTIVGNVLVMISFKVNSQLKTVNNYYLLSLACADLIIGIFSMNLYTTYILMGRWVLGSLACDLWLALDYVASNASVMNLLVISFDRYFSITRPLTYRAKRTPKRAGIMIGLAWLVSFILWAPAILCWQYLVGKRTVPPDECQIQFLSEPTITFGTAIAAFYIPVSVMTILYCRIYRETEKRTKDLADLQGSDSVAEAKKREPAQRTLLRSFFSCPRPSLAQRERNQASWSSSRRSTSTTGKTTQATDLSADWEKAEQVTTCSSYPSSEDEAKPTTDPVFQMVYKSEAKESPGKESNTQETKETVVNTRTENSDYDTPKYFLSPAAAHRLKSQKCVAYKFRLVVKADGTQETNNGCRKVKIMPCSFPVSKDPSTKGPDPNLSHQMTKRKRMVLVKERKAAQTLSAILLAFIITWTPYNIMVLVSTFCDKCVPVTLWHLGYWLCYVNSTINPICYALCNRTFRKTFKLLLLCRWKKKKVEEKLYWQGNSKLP
The series can be described thus: Agonist activity at rat muscarinic M5 receptor expressed in CHO cells. Type of series: functional, cell-based.

The target in series [5] is T4, Muscarinic acetylcholine receptor M1 (Homo sapiens, UniProt P11229).
T4 sequence (P11229 whole entry): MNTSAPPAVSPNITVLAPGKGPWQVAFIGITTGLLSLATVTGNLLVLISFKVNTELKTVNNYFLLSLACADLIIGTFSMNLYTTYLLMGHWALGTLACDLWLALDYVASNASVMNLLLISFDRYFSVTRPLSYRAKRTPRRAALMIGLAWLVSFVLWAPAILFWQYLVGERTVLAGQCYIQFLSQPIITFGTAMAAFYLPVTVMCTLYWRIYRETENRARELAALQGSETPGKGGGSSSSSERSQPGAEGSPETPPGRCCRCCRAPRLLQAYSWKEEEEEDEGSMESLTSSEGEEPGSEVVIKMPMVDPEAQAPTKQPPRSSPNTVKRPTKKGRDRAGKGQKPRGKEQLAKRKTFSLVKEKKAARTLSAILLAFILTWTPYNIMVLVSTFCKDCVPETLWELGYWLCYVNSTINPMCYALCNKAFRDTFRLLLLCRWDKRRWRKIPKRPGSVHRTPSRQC
The series can be described thus: Agonist activity at human recombinant muscarinic M1 receptor by HTS cell based assay. Type of series: functional.

In series [6] the target is T2, Muscarinic acetylcholine receptor M4. Put plainly: Agonist activity at rat recombinant muscarinic M4 receptor by HTS cell based assay. Type of series: functional.
In series [7] the target is Muscarinic acetylcholine receptor M3 (Homo sapiens, UniProt P20309). The series can be described thus: Agonist activity at human recombinant muscarinic M3 receptor by HTS cell based assay. It counts as functional.
Series [8] deals with T5, Muscarinic acetylcholine receptor M5 (Homo sapiens, UniProt P08912).
T5 sequence (P08912 whole entry): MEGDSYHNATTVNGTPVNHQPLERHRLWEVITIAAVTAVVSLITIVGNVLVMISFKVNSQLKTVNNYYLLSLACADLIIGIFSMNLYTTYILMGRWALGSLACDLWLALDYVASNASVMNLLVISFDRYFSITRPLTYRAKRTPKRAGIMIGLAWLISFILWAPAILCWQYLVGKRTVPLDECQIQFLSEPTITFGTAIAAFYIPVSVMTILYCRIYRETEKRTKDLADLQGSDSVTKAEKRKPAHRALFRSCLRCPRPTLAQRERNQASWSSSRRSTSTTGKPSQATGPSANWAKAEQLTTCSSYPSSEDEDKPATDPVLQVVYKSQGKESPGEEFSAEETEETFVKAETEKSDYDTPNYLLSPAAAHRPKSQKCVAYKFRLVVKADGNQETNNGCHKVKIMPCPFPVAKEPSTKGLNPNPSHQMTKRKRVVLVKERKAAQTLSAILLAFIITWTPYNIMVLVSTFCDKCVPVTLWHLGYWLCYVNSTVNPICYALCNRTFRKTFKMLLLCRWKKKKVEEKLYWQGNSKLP
Put plainly: Agonist activity at human recombinant muscarinic M5 receptor by HTS cell based assay. Type of series: functional.

A further series addresses Cytochrome P450 2C9 (Homo sapiens, UniProt P11712). Put plainly: Inhibition of CYP2C9. It counts as ADME.
The nature of series [9]: AUC in rat at 10 mg/kg, po. Type of series: ADME, organism-based. Also on record: dose 10 mg/kg, route oral. The conditions noted are these: plasma.

From ChEMBL document CHEMBL1914417 (Bioorg Med Chem Lett, 2011) come the findings set out here.

Molecules are shown by their SMILES.

Muscarinic acetylcholine receptor M3 (Rattus norvegicus, UniProt P08483), sequence (P08483 whole entry): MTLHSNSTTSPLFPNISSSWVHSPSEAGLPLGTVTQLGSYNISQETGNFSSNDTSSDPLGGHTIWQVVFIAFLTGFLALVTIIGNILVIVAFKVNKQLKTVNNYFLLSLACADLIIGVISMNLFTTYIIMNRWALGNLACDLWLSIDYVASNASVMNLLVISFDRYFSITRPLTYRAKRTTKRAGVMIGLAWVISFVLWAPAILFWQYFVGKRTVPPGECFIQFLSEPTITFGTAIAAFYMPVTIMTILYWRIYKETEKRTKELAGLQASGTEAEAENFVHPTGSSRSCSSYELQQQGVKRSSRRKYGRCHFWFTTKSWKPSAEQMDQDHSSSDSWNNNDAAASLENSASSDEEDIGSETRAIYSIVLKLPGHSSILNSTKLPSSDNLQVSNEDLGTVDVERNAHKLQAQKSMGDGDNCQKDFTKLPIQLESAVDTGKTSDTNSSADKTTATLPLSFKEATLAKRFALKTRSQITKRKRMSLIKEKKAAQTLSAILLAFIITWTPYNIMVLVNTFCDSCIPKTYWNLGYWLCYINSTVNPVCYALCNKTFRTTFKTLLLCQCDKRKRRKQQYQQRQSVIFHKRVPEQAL
Muscarinic acetylcholine receptor M3 (Homo sapiens, UniProt P20309), sequence (P20309 whole entry): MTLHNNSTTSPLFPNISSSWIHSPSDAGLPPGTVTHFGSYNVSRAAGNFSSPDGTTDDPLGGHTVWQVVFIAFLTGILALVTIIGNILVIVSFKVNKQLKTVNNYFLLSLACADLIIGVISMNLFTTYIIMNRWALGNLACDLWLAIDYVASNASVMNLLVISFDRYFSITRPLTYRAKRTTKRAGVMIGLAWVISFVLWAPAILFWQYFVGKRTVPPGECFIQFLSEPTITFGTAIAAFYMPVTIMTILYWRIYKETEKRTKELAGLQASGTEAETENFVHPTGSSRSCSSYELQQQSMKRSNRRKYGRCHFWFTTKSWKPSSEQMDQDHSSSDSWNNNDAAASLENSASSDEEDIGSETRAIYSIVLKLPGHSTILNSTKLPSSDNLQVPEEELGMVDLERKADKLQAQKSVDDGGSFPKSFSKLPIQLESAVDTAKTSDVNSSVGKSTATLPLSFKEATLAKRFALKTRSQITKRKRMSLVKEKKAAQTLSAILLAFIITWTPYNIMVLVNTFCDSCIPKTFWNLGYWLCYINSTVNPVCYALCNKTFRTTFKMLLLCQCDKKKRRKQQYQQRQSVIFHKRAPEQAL
Cytochrome P450 2C9, sequence (P11712 whole entry): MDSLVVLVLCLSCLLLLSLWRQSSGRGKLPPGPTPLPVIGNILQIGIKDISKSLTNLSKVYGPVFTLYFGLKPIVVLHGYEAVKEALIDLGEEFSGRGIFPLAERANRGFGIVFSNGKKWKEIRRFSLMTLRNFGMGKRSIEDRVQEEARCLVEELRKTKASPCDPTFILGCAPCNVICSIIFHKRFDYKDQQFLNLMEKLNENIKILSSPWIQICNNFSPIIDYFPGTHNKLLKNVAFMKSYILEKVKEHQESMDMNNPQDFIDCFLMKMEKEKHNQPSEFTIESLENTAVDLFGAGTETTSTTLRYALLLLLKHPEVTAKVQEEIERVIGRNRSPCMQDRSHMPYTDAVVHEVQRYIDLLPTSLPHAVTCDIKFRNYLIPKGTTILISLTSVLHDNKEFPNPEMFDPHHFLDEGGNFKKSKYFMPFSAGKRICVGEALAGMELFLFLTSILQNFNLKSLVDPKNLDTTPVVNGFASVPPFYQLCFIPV

Turning to `CCOC(=O)N1CCC(NCCNC(=O)c2ccccc2C)CC1`, the EC50 – broadly, the midpoint of the concentration-response curve – in series [1] is more than 30 µM; in [2] it was more than 30 µM; in series [3] it was more than 30 µM; in series [4] it was more than 30 µM; in series [5], 2.3 µM; in series [6], more than 30 µM. Moreover, the EC50 in series [7] and in series [8] was more than 30 µM in each case.
`CCOC(=O)N1CCC(N2CCC[C@@H](NC(=O)c3ccccc3C)C2)CC1`: the EC50 in series [1] is more than 30 µM; in series [2], more than 30 µM; in [3], more than 30 µM; in [4], more than 30 µM; in series [5], 1.3 µM; in series [6] it was more than 30 µM. Also, the EC50 in series [7] and in [8] was more than 30 µM each time. The IC50 – broadly, the concentration at which inhibition is half-maximal – on Cytochrome P450 2C9 was more than 25 µM. Besides, the AUC (usually the area under the concentration-time curve, a measure of exposure) in series [9] is 4200 ng·h/mL.
